Test results taken from paper PMC9340770 (Journal of Medicinal Chemistry, 2022).
Read-outs that look alike come from different tables or passages of the source.

Tests used:
[1] = test system: phosphorylated ERK1/2 (pERK) in MKN1 cells; experiment: cells; assay type: cell-based; details: Homo sapiens
human EGFR = biological target: T1, human EGFR (Homo sapiens, UniProt P00533); assay type: biochemical
T1 construct: purchased Reaction Biology

in vivo = details: CD-1, mouse, pH 5; for clearance: iv, 3 mg/kg; for AUC(0-t) / bioavailability: po, 100 mg/kg
[2] = Human liver microsome intrinsic clearance; assay type: in vitro ADME; details: human liver microsomes
[3] = test system: pERK in MIA PaCa-2 tumors; experiment: Tumor pharmacodynamic (pERK) study in MIA PaCa-2 mouse xenograft
[4] = test system: MIA PaCa-2 tumor mouse xenograft; experiment: Antitumor efficacy study in MIA PaCa-2 mouse xenograft; details: single agent MRTX849, 10 mg/kg qd, 25 days
[5] = MKN-1, In-Cell Western Assay measuring pERK, read-out: MKN1 Cell IC50
[6] = MKN-1, read-out: MKN1 Cell IC50
[7] = PO CD-1 mice, 100 mg/kg, 0.5% MC (4000 cps)/0.2% Tween80 in water

T1 sequence (P00533 25-1210): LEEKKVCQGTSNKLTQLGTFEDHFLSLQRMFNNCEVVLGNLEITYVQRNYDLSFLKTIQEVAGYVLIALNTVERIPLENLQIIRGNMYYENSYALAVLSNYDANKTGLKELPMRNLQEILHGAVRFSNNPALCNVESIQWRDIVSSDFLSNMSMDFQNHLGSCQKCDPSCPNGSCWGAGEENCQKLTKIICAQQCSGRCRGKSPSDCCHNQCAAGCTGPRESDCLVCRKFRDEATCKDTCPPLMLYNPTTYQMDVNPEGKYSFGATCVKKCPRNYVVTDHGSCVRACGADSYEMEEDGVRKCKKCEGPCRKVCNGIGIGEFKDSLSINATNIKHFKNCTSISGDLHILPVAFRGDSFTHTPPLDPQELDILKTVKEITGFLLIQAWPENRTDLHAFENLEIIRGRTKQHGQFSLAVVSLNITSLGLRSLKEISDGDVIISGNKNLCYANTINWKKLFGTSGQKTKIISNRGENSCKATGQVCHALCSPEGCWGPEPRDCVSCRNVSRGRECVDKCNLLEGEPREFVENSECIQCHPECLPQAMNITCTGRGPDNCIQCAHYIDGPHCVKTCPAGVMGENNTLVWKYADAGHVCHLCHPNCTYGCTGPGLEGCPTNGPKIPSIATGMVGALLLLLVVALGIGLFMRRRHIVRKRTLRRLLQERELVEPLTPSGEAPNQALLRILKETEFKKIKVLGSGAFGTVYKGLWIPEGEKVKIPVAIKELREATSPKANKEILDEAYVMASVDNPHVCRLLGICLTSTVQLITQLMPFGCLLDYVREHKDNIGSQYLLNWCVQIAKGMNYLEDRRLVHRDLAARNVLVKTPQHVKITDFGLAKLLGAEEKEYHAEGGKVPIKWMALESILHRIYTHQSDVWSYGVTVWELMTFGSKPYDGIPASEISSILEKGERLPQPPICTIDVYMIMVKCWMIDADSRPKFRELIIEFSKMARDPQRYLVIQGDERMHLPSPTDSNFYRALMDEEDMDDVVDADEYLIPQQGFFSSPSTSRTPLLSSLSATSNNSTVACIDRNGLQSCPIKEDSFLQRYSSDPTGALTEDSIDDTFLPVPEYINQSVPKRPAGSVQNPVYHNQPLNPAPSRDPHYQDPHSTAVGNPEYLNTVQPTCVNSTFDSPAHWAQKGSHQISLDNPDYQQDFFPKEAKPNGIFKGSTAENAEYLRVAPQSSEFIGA

Question: Which results are given for `COc1cc2cnnc(N[C@H](C)c3ccccc3)c2cc1OC` [Compound 6]?
Answer: IC50 [1, 5]: > 10000 nM; IC50 (human EGFR; 10 μM ATP): > 10000 nM

Question: For `COc1cc2cnnc(N[C@H](C)c3cccc4ccccc34)c2cc1OC` [Compound 7], which IC50 [1, 5] is on record?
Answer: > 10000 nM

Question: And the IC50 (human EGFR; 10 μM ATP)?
Answer: > 10000 nM

Question: What does the source list for `COc1cc2cnnc(N[C@H](C)c3cccc(C(F)(F)F)c3)c2cc1OC` [Compound 8]?
Answer: IC50 [1, 6]: 958 nM; IC50 (human EGFR; 10 μM ATP): > 10000 nM

Question: For `COc1cc2cnnc(N[C@H](C)c3ccccc3C)c2cc1OC` [Compound 9], which IC50 [1, 5] is on record?
Answer: > 10000 nM

Question: What about the IC50 (human EGFR; 10 μM ATP) of the same compound?
Answer: > 10000 nM

Question: With `COc1cc2cnnc(N[C@H](C)c3cccc(C(F)(F)F)c3C)c2cc1OC` [Compound 10] as the compound, how does the IC50 (human EGFR; 10 μM ATP) read?
Answer: > 10000 nM

Question: With `CNCc1ccccc1-c1csc([C@@H](C)Nc2nncc3cc(OC)c(OC)cc23)c1` [Compound 11] as the compound, how does the IC50 (human EGFR) read?
Answer: > 10000 nM

Question: Which results are given for `Cc1c([C@@H](C)Nc2nnc(C)c3ccc(N4CCNCC4)cc23)cccc1C(F)(F)F` [Compound 15]?
Answer: clearance (in vivo): 85 mL/min/kg; AUC(0-t) (in vivo): 1300 ng·h/mL; bioavailability (in vivo): 11%

Question: Which IC50 [1, 6] does the source give for `Cc1c([C@@H](C)Nc2nnc(C)c3ccc(C4CCNCC4)cc23)cccc1C(F)(F)F` [Compound 16] here?
Answer: 183 nM

Question: With `Cc1c([C@@H](C)Nc2nnc(C(F)(F)F)c3ccc(N4CCNCC4)cc23)cccc1C(F)(F)F` [Compound 18] as the compound, how does the IC50 [1, 5] read?
Answer: > 10000 nM

Question: For `COc1nnc(N[C@H](C)c2cccc(C(F)(F)F)c2C)c2cc(N3CCNCC3)ccc12` [Compound 19], which IC50 [1, 5] is on record?
Answer: > 10000 nM

Question: For `Cc1c([C@@H](C)Nc2n[nH]c(=O)c3ccc(N4CCNCC4)cc23)cccc1C(F)(F)F` [Compound 21], which IC50 [1, 6] is on record?
Answer: 114 nM

Question: For `Cc1c([C@@H](C)Nc2nn(C)c(=O)c3ccc(N4CCNCC4)cc23)cccc1C(F)(F)F` [Compound 22], which IC50 [1, 6] is on record?
Answer: 881 nM

Question: Which CLint scaled [2] does the source give for `Cc1c([C@@H](C)Nc2nnc(C)c3cnc(N4CCNCC4)cc23)cccc1C(F)(F)F` [Compound 23] here?
Answer: 27 mL/min/kg

Question: And the Eh (mouse, IV 3 mg/kg)?
Answer: 0.58

Question: What about the clearance (in vivo) of the same compound?
Answer: 52 mL/min/kg

Question: And the AUC(0-t) (in vivo)?
Answer: 9970 ng·h/mL

Question: What about the bioavailability (in vivo) of the same compound?
Answer: 44%

Question: For `Cc1c([C@@H](C)Nc2nnc(C)c3cnc(N4CCOCC4)cc23)cccc1C(F)(F)F` [Compound 24], which IC50 [1, 5] is on record?
Answer: 26 nM

Question: And the CLint scaled [2]?
Answer: 114 mL/min/kg

Question: What about the “mPK PO Dosing %F” value [7] of the same compound?
Answer: ~100%

Question: What about the “mPK PO Dosing AUC0-last” value [7] of the same compound?
Answer: 130318 ng·h/mL

Question: And the clearance (in vivo)?
Answer: 17 mL/min/kg

Question: What about the “tumor pERK modulation, single agent” value ([3]; 24 at 100 mg/kg bid PO, 21 days, 3 h after last dose) of the same compound?
Answer: No modulation

Question: And the “reduction in tumor pERK, combination” value ([3]; 24 at 100 mg/kg bid in combination with MRTX849 10 mg/kg qd, PO, 21 days, 3 h after last dose)?
Answer: 69%

Question: For `Cc1nnc(N[C@H](C)c2cccc(C(F)(F)F)c2F)c2cc(N3CCOCC3)ncc12` [Compound 25], which CLint scaled [2] is on record?
Answer: 214 mL/min/kg

Question: Which IC50 [1, 6] does the source give for `Cc1nnc(N[C@H](C)c2cccc(C(F)(F)F)n2)c2cc(N3CCOCC3)ncc12` [Compound 26] here?
Answer: 185 nM

Question: What about the CLint scaled [2] of the same compound?
Answer: 206 mL/min/kg

Question: Which CLint scaled [2] does the source give for `Cc1nnc(N[C@H](C)c2cc(N)cc(C(F)(F)F)n2)c2cc(N3CCOCC3)ncc12` [Compound 27] here?
Answer: 18 mL/min/kg

Question: With `Cc1ncccc1[C@@H](C)Nc1nnc(C)c2cnc(N3CCOCC3)cc12` [Compound 28] as the compound, how does the CLint scaled [2] read?
Answer: 21 mL/min/kg

Question: Which IC50 [1, 6] does the source give for `Cc1nn(C)cc1[C@@H](C)Nc1nnc(C)c2cnc(N3CCOCC3)cc12` [Compound 29] here?
Answer: 3280 nM

Question: And the CLint scaled [2]?
Answer: 15 mL/min/kg

Question: With `Cc1nnc(N[C@H](C)c2cn(C)nc2C(F)(F)F)c2cc(N3CCOCC3)ncc12` [Compound 30] as the compound, how does the IC50 [1, 6] read?
Answer: 1150 nM

Question: And the CLint scaled [2]?
Answer: 37 mL/min/kg

Question: With `Cc1c(Br)cccc1[C@@H](C)Nc1nnc(C)c2cnc(N3CCOCC3)cc12` [Compound 31] as the compound, how does the IC50 [1, 6] read?
Answer: 114 nM

Question: And the CLint scaled [2]?
Answer: 396 mL/min/kg

Question: With `Cc1c([C@@H](C)Nc2nnc(C)c3cnc(N4CCOCC4)cc23)cccc1S(C)(=O)=O` [Compound 33] as the compound, how does the CLint scaled [2] read?
Answer: 7.9 mL/min/kg

Question: Which CLint scaled [2] does the source give for `Cc1nnc(N[C@H](C)c2cccc(C#N)c2)c2cc(N3CCOCC3)ncc12` [Compound 34] here?
Answer: 505 mL/min/kg

Question: For `Cc1c(C#N)cccc1[C@@H](C)Nc1nnc(C)c2cc(F)c(N3CCOCC3)cc12` [Compound 35], which IC50 [1, 5] is on record?
Answer: 120 nM

Question: For `Cc1c(C#N)cccc1[C@@H](C)Nc1nnc(C)c2cc(Cl)c(N3CCOCC3)cc12` [Compound 36], which IC50 [1, 6] is on record?
Answer: 286 nM

Question: With `Cc1c(C#N)cccc1[C@@H](C)Nc1nnc(C)c2cc(C#N)c(N3CCOCC3)cc12` [Compound 37] as the compound, how does the IC50 [1, 5] read?
Answer: 490 nM

Question: Which results are given for `C=C(F)C(=O)N1CCN(c2nc(OC[C@@H]3CCCN3C)nc3c2CCN(c2cccc4cccc(Cl)c24)C3)C[C@@H]1CC#N` [MRTX849, adagrasib, reference compound]?
Answer: tumor growth inhibition (TGI) [4]: 94%; tumor pERK modulation, single agent ([3]; MRTX849 at 10 mg/kg qd PO, 21 days): No modulation; plasma concentration of MRTX849 ([3]; MRTX849 dosed in combination with MRTX0902): remained unchanged
